Results reported in patent publication US5116834A, “Quinolinecarboxylic acid antibacterial agents” (Warner-Lambert Company, priority 1991, dated 1992).
Converted amounts (≈) assume the structure as drawn.

Columns and labels:
Assay in all cases: In vitro antibacterial activity, microtitration dilution method (MIC)
Type in all cases: cell-based
[1] = tested on: Enterobacter cloacae MA 2646; conditions: MA2646, read-out: Minimal Inhibitory Concentration (MIC)
Description: (§1) The compounds of the invention display anti-bacterial activity when tested by the microtitration dilution method as described in Heifetz, et al, Antimicr. Agents & Chemoth., 6, 124 (1974), which is incorporated herein by reference.
(§2) By use of the above reference method, the following minimum inhibitory concentration value (MICs in μg/mL) shown in Table I were obtained for representative compounds of the invention.

Escherichia coli H56 = conditions: read-out: Minimal Inhibitory Concentration (MIC)
Description: as §1, §2

Escherichia coli Vogel = conditions: read-out: Minimal Inhibitory Concentration (MIC)
Description: as §1, §2

Proteus rettgeri M 1771 = conditions: Providencia rettgeri, M1771, read-out: Minimal Inhibitory Concentration (MIC)
Description: as §1, §2

[2] = tested on: Pseudomonas aeroginosa UI-18; conditions: UI18, read-out: Minimal Inhibitory Concentration (MIC)
Description: as §1, §2

[3] = tested on: Staphylococcus aureus UC-76; conditions: UC76, read-out: Minimal Inhibitory Concentration (MIC)
Description: as §1, §2

[4] = tested on: Streptococcus faecalis MGH-2; conditions: Enterococcus faecalis, MGH2, read-out: Minimal Inhibitory Concentration (MIC)
Description: as §1, §2

[5] = tested on: Streptococcus pyogenes C-203; conditions: C203, read-out: Minimal Inhibitory Concentration (MIC)
Description: as §1, §2

[6] = tested on: Klebsiella pneumoniae MGH-2; conditions: MGH2, read-out: Minimal Inhibitory Concentration (MIC)
Description: (§3) The compounds of the invention display anti-bacterial activity when tested by the microtitration dilution method as described in Heifetz, et al, […]. Agents & Chemoth., 6, 124 (1974), which is incorporated herein by reference. By use of the above reference method, the following minimum inhibitory concentration value (MICs in μg/mL) shown in Table I were obtained for representative compounds of the invention.

[7] = tested on: Staphylococcus aureus H228; conditions: read-out: Minimal Inhibitory Concentration (MIC)
Description: as §3

[8] = tested on: Streptococcus pneumoniae SV-1; conditions: SV1, read-out: Minimal Inhibitory Concentration (MIC)
Description: as §3

SMILES	MIC [1]	MIC (Escherichia coli H56)	MIC (Escherichia coli Vogel)	MIC (Proteus rettgeri M 1771)	MIC [2]	MIC [3]	MIC [4]	MIC [5]	MIC [6]	MIC [7]	MIC [8]
C=Cc1c(N2CCNC(C)C2)c(F)cc2c(=O)c(C(=O)O)cn(C3CC3)c12 (stereo not drawn) [Ex. 1, 1-Cyclopropyl-8-ethenyl-6-fluoro-1,4-dihydro-7-(3-methyl-1-piperazinyl)-4-oxo-3-quinolinecarboxylicacid]	0.1 µg/mL (≈ 0.269 µM)	0.05 µg/mL (≈ 0.135 µM)	0.1 µg/mL (≈ 0.269 µM)	0.4 µg/mL (≈ 1.08 µM)	1.6 µg/mL (≈ 4.31 µM)	0.1 µg/mL (≈ 0.269 µM)	0.4 µg/mL (≈ 1.08 µM)	0.2 µg/mL (≈ 0.538 µM)	0.2 µg/mL (≈ 0.538 µM)	0.2 µg/mL (≈ 0.538 µM)	0.2 µg/mL (≈ 0.538 µM)
C=Cc1c(N2CCNCC2)c(F)cc2c(=O)c(C(=O)O)cn(C3CC3)c12 [Ex. 2, 1-Cyclopropyl-8-ethenyl-6-fluoro-1,4-dihydro-4-oxo-7-(1-piperazinyl)-3-quinolinecarboxylic acid]	0.1 µg/mL (≈ 0.28 µM)	0.05 µg/mL (≈ 0.14 µM)	0.1 µg/mL (≈ 0.28 µM)	0.4 µg/mL (≈ 1.12 µM)	1.6 µg/mL (≈ 4.48 µM)	0.1 µg/mL (≈ 0.28 µM)	0.4 µg/mL (≈ 1.12 µM)	0.4 µg/mL (≈ 1.12 µM)	0.2 µg/mL (≈ 0.56 µM)	0.4 µg/mL (≈ 1.12 µM)	0.4 µg/mL (≈ 1.12 µM)
C=Cc1c(N2CC[C@@H](CNCC)C2)c(F)cc2c(=O)c(C(=O)O)cn(C3CC3)c12 [Ex. 3, 1-Cyclopropyl-8-ethenyl-7-[3(S)-(ethylamino)methyl-1-pyrrolidine]-6-fluoro-1,4-dihydro-4-oxo-3-quinolinecarboxylic acid]	0.2 µg/mL (≈ 0.501 µM)	0.1 µg/mL (≈ 0.25 µM)	0.1 µg/mL (≈ 0.25 µM)	0.4 µg/mL (≈ 1 µM)	3.1 µg/mL (≈ 7.76 µM)	0.003 µg/mL (≈ 0.00751 µM)	0.013 µg/mL (≈ 0.0325 µM)	0.013 µg/mL (≈ 0.0325 µM)	0.4 µg/mL (≈ 1 µM)	0.006 µg/mL (≈ 0.015 µM)	0.003 µg/mL (≈ 0.00751 µM)
